Legend:
Experiment in all cases: relative viability (nuclei count vs DMSO), 5 days (fraction); higher = more cells survive
LC-2-ad = system: LC-2-ad
In short: (§1)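 Medians of duplicate plates are given as relative viability. That measure is the nuclei count in treated wells divided by the count in vehicle wells. Counts were taken on 4× images of lung cancer cell lines in 1536-well plates, 5 days after pin-tool dosing the day after seeding with one drug alone or a fixed anchor-drug dose plus five library-drug doses (not always all listed) in √10 steps.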

NCI-H2228 = system: NCI-H2228
In short: as §1

LCLC-103H = system: LCLC-103H
In short: as §1

COR-L23 = system: COR-L23
In short: as §1

SW 1573 = system: SW 1573
In short: as §1

LU99A = system: LU99A
In short: as §1

H3255 = system: H3255
In short: as §1

SW 900 = system: SW 900
In short: as §1

NCI-H1563 = system: NCI-H1563
In short: as §1

PC-14 = system: PC-14
In short: as §1

NCI-H1650 = system: NCI-H1650
In short: as §1

NCI-H727 = system: NCI-H727
In short: as §1

NCI-H2347 = system: NCI-H2347
In short: as §1

A-427 = system: A-427
In short: as §1

201T = system: 201T
In short: as §1

NCI-H596 = system: NCI-H596
In short: as §1

HCC-44 = system: HCC-44
In short: as §1

NCI-H1793 = system: NCI-H1793
In short: as §1

LCLC-97TM1 = system: LCLC-97TM1
In short: as §1

NCI-H23 = system: NCI-H23
In short: as §1

LK-2 = system: LK-2
In short: as §1

NCI-H460 = system: NCI-H460
In short: as §1

CC(=O)O[C@@]12CO[C@@H]1C[C@H](O)[C@@]1(C)C(=O)[C@H](O)C3=C(C)[C@@H](OC(=O)[C@H](O)[C@@H](NC(=O)OC(C)(C)C)c4ccccc4)C[C@@](O)([C@@H](OC(=O)c4ccccc4)[C@H]21)C3(C)C [Docetaxel] + CCNC(=O)c1noc(-c2cc(C(C)C)c(O)cc2O)c1-c1ccc(CN2CCOCC2)cc1 [Luminespib] (partner 0.01 µM)
relative viability (LC-2-ad; first compound 0.0002 µM): 0.777
relative viability (LC-2-ad; first compound 0.000632 µM): 0.544
relative viability (LC-2-ad; first compound 0.002 µM): 0.503
relative viability (LC-2-ad; first compound 0.006325 µM): 0.445
relative viability (NCI-H2228; first compound 0.0002 µM): 0.146
relative viability (NCI-H2228; first compound 0.000632 µM): 0.145
relative viability (NCI-H2228; first compound 0.002 µM): 0.129
relative viability (NCI-H2228; first compound 0.006325 µM): 0.194
relative viability (NCI-H2228; first compound 0.02 µM): 0.19
relative viability (LCLC-103H; first compound 0.0002 µM): 0.885
relative viability (LCLC-103H; first compound 0.000632 µM): 0.835
relative viability (LCLC-103H; first compound 0.002 µM): 0.498
relative viability (LCLC-103H; first compound 0.006325 µM): 0.443
relative viability (LCLC-103H; first compound 0.02 µM): 0.218
relative viability (COR-L23; first compound 0.0002 µM): 0.632
relative viability (COR-L23; first compound 0.000632 µM): 0.622
relative viability (COR-L23; first compound 0.002 µM): 0.131
relative viability (COR-L23; first compound 0.006325 µM): 0.128
relative viability (COR-L23; first compound 0.02 µM): 0.101
relative viability (SW 1573; first compound 0.0002 µM): 0.165
relative viability (SW 1573; first compound 0.000632 µM): 0.211
relative viability (SW 1573; first compound 0.002 µM): 0.0935
relative viability (SW 1573; first compound 0.006325 µM): 0.137
relative viability (SW 1573; first compound 0.02 µM): 0.0617
relative viability (LU99A; first compound 0.0002 µM): 0.218
relative viability (LU99A; first compound 0.000632 µM): 0.245
relative viability (LU99A; first compound 0.002 µM): 0.23
relative viability (LU99A; first compound 0.006325 µM): 0.193
relative viability (LU99A; first compound 0.02 µM): 0.2
relative viability (H3255; first compound 0.0002 µM): 0.907
relative viability (H3255; first compound 0.000632 µM): 1.12
relative viability (H3255; first compound 0.002 µM): 0.755
relative viability (H3255; first compound 0.006325 µM): 0.157
relative viability (H3255; first compound 0.02 µM): 0.309
relative viability (SW 900; first compound 0.0002 µM): 0.185
relative viability (SW 900; first compound 0.000632 µM): 0.182
relative viability (SW 900; first compound 0.002 µM): 0.174
relative viability (SW 900; first compound 0.006325 µM): 0.186
relative viability (SW 900; first compound 0.02 µM): 0.167
relative viability (NCI-H1563; first compound 0.0002 µM): 0.518
relative viability (NCI-H1563; first compound 0.000632 µM): 0.522
relative viability (NCI-H1563; first compound 0.002 µM): 0.515
relative viability (NCI-H1563; first compound 0.006325 µM): 0.457
relative viability (NCI-H1563; first compound 0.02 µM): 0.408
relative viability (PC-14; first compound 0.0002 µM): 0.199
relative viability (PC-14; first compound 0.000632 µM): 0.162
relative viability (PC-14; first compound 0.002 µM): 0.116
relative viability (PC-14; first compound 0.02 µM): 0.127
relative viability (NCI-H1650; first compound 0.0002 µM): 0.22
relative viability (NCI-H1650; first compound 0.000632 µM): 0.212
relative viability (NCI-H1650; first compound 0.006325 µM): 0.199
relative viability (NCI-H1650; first compound 0.02 µM): 0.193
relative viability (NCI-H727; first compound 0.0002 µM): 0.753
relative viability (NCI-H727; first compound 0.000632 µM): 0.419
relative viability (NCI-H727; first compound 0.002 µM): 0.351
relative viability (NCI-H727; first compound 0.006325 µM): 0.353
relative viability (NCI-H727; first compound 0.02 µM): 0.308
relative viability (NCI-H2347; first compound 0.0002 µM): 0.513
relative viability (NCI-H2347; first compound 0.000632 µM): 0.631
relative viability (NCI-H2347; first compound 0.002 µM): 0.39
relative viability (NCI-H2347; first compound 0.006325 µM): 0.311
relative viability (NCI-H2347; first compound 0.02 µM): 0.34
relative viability (A-427; first compound 0.0002 µM): 0.883
relative viability (A-427; first compound 0.000632 µM): 0.832
relative viability (A-427; first compound 0.002 µM): 0.507
relative viability (A-427; first compound 0.006325 µM): 0.238
relative viability (A-427; first compound 0.02 µM): 0.161
relative viability (201T; first compound 0.0002 µM): 1.08
relative viability (201T; first compound 0.000632 µM): 0.907
relative viability (201T; first compound 0.002 µM): 0.8
relative viability (201T; first compound 0.006325 µM): 0.485
relative viability (201T; first compound 0.02 µM): 0.302
relative viability (NCI-H596; first compound 0.0002 µM): 0.872
relative viability (NCI-H596; first compound 0.000632 µM): 0.58
relative viability (NCI-H596; first compound 0.002 µM): 0.713
relative viability (NCI-H596; first compound 0.006325 µM): 0.36
relative viability (NCI-H596; first compound 0.02 µM): 0.267
relative viability (HCC-44; first compound 0.0002 µM): 0.986
relative viability (HCC-44; first compound 0.000632 µM): 0.901
relative viability (HCC-44; first compound 0.002 µM): 0.35
relative viability (HCC-44; first compound 0.006325 µM): 0.289
relative viability (HCC-44; first compound 0.02 µM): 0.171
relative viability (NCI-H1793; first compound 0.0002 µM): 0.174
relative viability (NCI-H1793; first compound 0.002 µM): 0.238
relative viability (NCI-H1793; first compound 0.006325 µM): 0.177
relative viability (NCI-H1793; first compound 0.02 µM): 0.134
relative viability (LCLC-97TM1; first compound 0.0002 µM): 0.71
relative viability (LCLC-97TM1; first compound 0.000632 µM): 0.622
relative viability (LCLC-97TM1; first compound 0.002 µM): 0.548
relative viability (LCLC-97TM1; first compound 0.006325 µM): 0.167
relative viability (LCLC-97TM1; first compound 0.02 µM): 0.106
relative viability (NCI-H23; first compound 0.0002 µM): 0.208
relative viability (NCI-H23; first compound 0.000632 µM): 0.224
relative viability (NCI-H23; first compound 0.002 µM): 0.233
relative viability (NCI-H23; first compound 0.006325 µM): 0.224
relative viability (NCI-H23; first compound 0.02 µM): 0.18
relative viability (LK-2; first compound 0.0002 µM): 0.193
relative viability (LK-2; first compound 0.000632 µM): 0.177
relative viability (LK-2; first compound 0.002 µM): 0.157
relative viability (LK-2; first compound 0.006325 µM): 0.164
relative viability (LK-2; first compound 0.02 µM): 0.168
relative viability (NCI-H460; first compound 0.0002 µM): 0.032
relative viability (NCI-H460; first compound 0.002 µM): 0.0279
relative viability (NCI-H460; first compound 0.006325 µM): 0.025
relative viability (NCI-H460; first compound 0.02 µM): 0.0187
